According to patent US8334403B1, “C-lysine conjugates as pH-controlled, light-activated reagents for double stranded DNA cleavage and associated methods” (Florida State University Research Foundation, Inc., priority 2005, dated 2012):
Where two headings read alike, the source gives them in different places.

Key:
[1] = Fluorometric (emission) determination of pKa; format: physicochemical; conditions: emission; α-amino group (4, 6), ε-amino group (7)
Procedure: (§1) General information. ^1H, ^13C and ^19F NMR were collected on a Varian Gemini 300 MHz NMR spectrometer and a Bruker 300 MHz NMR spectrometer. Mass spectrometry data was collected on a Jeol JMS-600H. UV spectra were recorded on a Shimadzu UV-2100. Fluorescence spectra were obtained with SPEX FluoMax spectrofluorimeter using right-angle geometry. pH was adjusted with AB 15 plus pH meter (Accument) after standardization at 25° C. All buffers were prepared and pH-adjusted at room temperature (25° C.). Plasmid DNA Photocleavage. pBR322 plasmid DNA (4,361 b/p; from BioLabs Inc., 1 μg/μL solution in 10 mM Tris-HCl (pH 8.0), and 1 mM EDTA buffer) was diluted to a concentration of 0.01 μg/μL. The solution containing cleavage agent, DNA (30 μM/bp) in 20 mM sodium phosphate buffer was incubated for 1 hour at 30° C. Samples were placed on ice at a distance of 20 cm from 200 W Hg—Xe lamp (Spectra-Physics, Laser & Photonics Oriel Instruments with long pass filter with 324 nm cut-off wavelength). Electrophoretic Analysis. The gel electrophoresis was carried out in 1×TBE buffer at 80 V using Miligel FisherBiotech Horizontal Electrophoresis System. All gels were run on 1% agarose slab gels. Before loading, the DNA samples were mixed with 0.33 volume of tracking dye containing bromophenol blue (0.25%) and glycerol (30%) in water. After staining in ethidium bromide solution (2 μg/ml) for 1 hour, the gel was washed with water and pictures were taken with Polaroid 3000ISO type 667 film. The relative quantities of the supercoiled, nicked, and linear DNA were calculated by integrating the “area” of each spot by the image analyzer software Total/Lab (Nonlinear Dynamics Ltd., UK). The amount of supercoiled DNA was multiplied by factor of 1.4 to account for reduced ethidium bromide intercalation into supercoiled DNA. pH titration by ^1H-NMR. pH* of compound 8 (3 mM) solution in D2O containing 0.05 wt % 3-(trimethylsilyl)propionic-2,2,3,3-d4 acid, sodium salt (TSP-d4) was adjusted with 10 wt % DCI and NaOD in D2O at 25° C. under argon purged condition. Spectrometric determinations of pKa. pH of 10 μM of compound solution in H2O was adjusted with 10, 100 mM HCl (aq) and NaOH (aq) solution under argon purged condition. Excitation wavelength was 330 nm and polymethacrylate fluorimeter cuvettes were used. Absorbance and fluorescence titration with DNA. The concentrations of calf thymus DNA stock solution was determined spectophotometrically using the following molar absorptovity values: 1.32×10^4 M^−1 cm^−1 (per base pair) at 260 nm. All experiments were done in 20 mM sodium phosphate buffer at 25° C. and polymethacrylate fluorimeter cuvettes were used. The same amount of DNA was added to both sample and reference cuvettes during UV/Vis titration. Determination of excited state lifetimes. The concentration of compound solution was 10 μM in 20 mM sodium phosphate buffer. The photoluminescence lifetime measurements were conducted by exciting the samples with the output of a Nd:VO—4 (Spectra-Physics Vanguard, 2 W, 532 nm, 76 MHz, 10 ps) pumped R6G dye laser (Coherent 702-1). The output of the dye laser (600 nm, Rhodamine 6G) was cavity dumped at 1.9 MHz and frequency doubled using a BBO crystal to excite the fluorophore (the excitation wavelength used was 290 nm). Samples were excited with <1 mW power and the emission was collected at right angles onto a Chromex S3 500 is 0.5 m imaging monochromator with a 50 g/mm grating and 0.5 nm resolution. […]

[2] = UV-absorption titration determination of pKa; format: physicochemical; conditions: for pKa1: absorption, α-amino group (4, 6), ε-amino group (7)
Procedure: as §1

pBR322 plasmid DNA = test: Plasmid relaxation assay: DNA photocleavage of supercoiled plasmid under UV irradiation; format: biochemical; conditions: pH 6, 15 μM, 10 min of UV irradiation
Procedure: General information. ^1H, ^13C and ^19F NMR were collected on a Varian Gemini 300 MHz NMR spectrometer and a Bruker 300 MHz NMR spectrometer. Mass spectrometry data was collected on a Jeol JMS-600H. UV spectra were recorded on a Shimadzu UV-2100. Fluorescence spectra were obtained with SPEX FluoMax spectrofluorimeter using right-angle geometry. pH was adjusted with AB 15 plus pH meter (Accument) after standardization at 25° C. All buffers were prepared and pH-adjusted at room temperature (25° C.). Plasmid DNA Photocleavage. pBR322 plasmid DNA (4,361 b/p; from BioLabs Inc., 1 μg/μL solution in 10 mM Tris-HCl (pH 8.0), and 1 mM EDTA buffer) was diluted to a concentration of 0.01 μg/μL. The solution containing cleavage agent, DNA (30 μM/bp) in 20 mM sodium phosphate buffer was incubated for 1 hour at 30° C. Samples were placed on ice at a distance of 20 cm from 200 W Hg—Xe lamp (Spectra-Physics, Laser & Photonics Oriel Instruments with long pass filter with 324 nm cut-off wavelength). Electrophoretic Analysis. The gel electrophoresis was carried out in 1×TBE buffer at 80 V using Miligel FisherBiotech Horizontal Electrophoresis System. All gels were run on 1% agarose slab gels. Before loading, the DNA samples were mixed with 0.33 volume of tracking dye containing bromophenol blue (0.25%) and glycerol (30%) in water. After staining in ethidium bromide solution (2 μg/ml) for 1 hour, the gel was washed with water and pictures were taken with Polaroid 3000ISO type 667 film. The relative quantities of the supercoiled, nicked, and linear DNA were calculated by integrating the “area” of each spot by the image analyzer software Total/Lab (Nonlinear Dynamics Ltd., UK). The amount of supercoiled DNA was multiplied by factor of 1.4 to account for reduced ethidium bromide intercalation into supercoiled DNA. pH titration by ^1H-NMR. pH* of compound 8 (3 mM) solution in D2O containing 0.05 wt % 3-(trimethylsilyl)propionic-2,2,3,3-d4 acid, sodium salt (TSP-d4) was adjusted with 10 wt % DCI and NaOD in D2O at 25° C. under argon purged condition. Spectrometric determinations of pKa. pH of 10 μM of compound solution in H2O was adjusted with 10, 100 mM HCl (aq) and NaOH (aq) solution under argon purged condition. Excitation wavelength was 330 nm and polymethacrylate fluorimeter cuvettes were used. Absorbance and fluorescence titration with DNA. The concentrations of calf thymus DNA stock solution was determined spectophotometrically using the following molar absorptovity values: 1.32×10^4 M^−1 cm^−1 (per base pair) at 260 nm. All experiments were done in 20 mM sodium phosphate buffer at 25° C. and polymethacrylate fluorimeter cuvettes were used. The same amount of DNA was added to both sample and reference cuvettes during UV/Vis titration. Determination of excited state lifetimes. The concentration of compound solution was 10 μM in 20 mM sodium phosphate buffer. The photoluminescence lifetime measurements were conducted by exciting the samples with the output of a Nd:VO—4 (Spectra-Physics Vanguard, 2 W, 532 nm, 76 MHz, 10 ps) pumped R6G dye laser (Coherent 702-1). The output of the dye laser (600 nm, Rhodamine 6G) was cavity dumped at 1.9 MHz and frequency doubled using a BBO crystal to excite the fluorophore (the excitation wavelength used was 290 nm). Samples were excited with <1 mW power and the emission was collected at right angles onto a Chromex S3 500 is 0.5 m imaging monochromator with a 50 g/mm grating and 0.5 nm resolution. Output of the monochromator is focused into a Hamamatsu C5680 streak camera operating at a 20 ns window for the fluorophore. Intensity analysis was carried out by integrating the spectral profile in time on the streak camera. Lifetime analysis over 6-7 lifetimes of the fluorophore was conducted by binning the photoluminescence intensity collected on the streak camera over a 20 nm spectral window at the centroid value of the emission of the fluorophore. Ethidium bromide displacement. […]

DNA = conditions: cited from earlier work
[3] = pH (pD) titration by 1H-NMR in D2O; format: physicochemical; conditions: uncorrected
Procedure: General information. ^1H, ^13C and ^19F NMR were collected on a Varian Gemini 300 MHz NMR spectrometer and a Bruker 300 MHz NMR spectrometer. Mass spectrometry data was collected on a Jeol JMS-600H. UV spectra were recorded on a Shimadzu UV-2100. Fluorescence spectra were obtained with SPEX FluoMax spectrofluorimeter using right-angle geometry. pH was adjusted with AB 15 plus pH meter (Accument) after standardization at 25° C. All buffers were prepared and pH-adjusted at room temperature (25° C.). Plasmid DNA Photocleavage. pBR322 plasmid DNA (4,361 b/p; from BioLabs Inc., 1 μg/μL solution in 10 mM Tris-HCl (pH 8.0), and 1 mM EDTA buffer) was diluted to a concentration of 0.01 μg/μL. The solution containing cleavage agent, DNA (30 μM/bp) in 20 mM sodium phosphate buffer was incubated for 1 hour at 30° C. […] The relative quantities of the supercoiled, nicked, and linear DNA were calculated by integrating the “area” of each spot by the image analyzer software Total/Lab (Nonlinear Dynamics Ltd., UK). […] Absorbance and fluorescence titration with DNA. The concentrations of calf thymus DNA stock solution was determined spectophotometrically using the following molar absorptovity values: 1.32×10^4 M^−1 cm^−1 (per base pair) at 260 nm. […]

Compound | pKa1 [1] | pKa1 [2] | ds-cleavage (pBR322 plasmid DNA) | other results
Cl.NCCCCCC(=O)Nc1ccc(C#Cc2c(F)c(F)nc(F)c2F)cc1 [Compound 7, 6-Aminohexanoic acid [4-(2,3,5,6-tetrafluoro-pyridin-4-ylethynyl)-phenyl]-amide Hydrochloride] | 10.8 | 9.4 | do not produce any ds-cleavage | pKa for the ε-ammonium group lower by absorption than derived from the fluorescence changes ([2]; absorption vs fluorescence): > 1 pKa units
COc1cc(CCN)c2c(c1OC)SS[S+]2[O-] (centres unmarked) [Varacin C] | – | – | – | extent of single stranded (ss) DNA cleavage (DNA; pH 5.5, 5 μM antibiotic loading): 47%; extent of single stranded (ss) DNA cleavage (DNA; pH 7): 23%
Cl.Cl.NCCCC[C@H](N)C(=O)Nc1ccccc1 [Compound 8, (S)-2,6-Diaminohexanoic acid phenyl-amide dihydrochloride] | – | – | – | pKa1 (α-amino group) [3]: 7.56; pKa2 (ε-amino group) [3]: 10.75
C[C@H](N)C(=O)Nc1ccc(C#Cc2c(F)c(F)nc(F)c2F)cc1.Cl [Compound 6, (S)-2-Amino-propanoic acid [4-(2,3,5,6-tetrafluoro-pyridin-4-ylethynyl)-phenyl]-amide hydrochloride] | 7.6 | 7.4 | do not produce any ds-cleavage | –
